Source: publication PMC7028039, “Convergent evolution of the UbiA prenyltransferase family underlies the independent acquisition of furanocoumarins in plants” (The New Phytologist, 2019)

What was measured:
FcPT1b = target: T1, FcPT1b (Ficus carica, UniProt A0A6S4PSN9); assay: microsomal prenyltransferase assay, HPLC and LC-MS2 product identification; type: biochemical; details: 50 µM umbelliferone, 200 µM DMAPP, 10 mM MgCl2; product demethylsuberosin (DMS)
T1 construct: full CDS with transit peptide, pGWB502 (35S promoter), transient expression in Nicotiana benthamiana leaves, microsomes
T1 sequence (A0A6S4PSN9 1-422): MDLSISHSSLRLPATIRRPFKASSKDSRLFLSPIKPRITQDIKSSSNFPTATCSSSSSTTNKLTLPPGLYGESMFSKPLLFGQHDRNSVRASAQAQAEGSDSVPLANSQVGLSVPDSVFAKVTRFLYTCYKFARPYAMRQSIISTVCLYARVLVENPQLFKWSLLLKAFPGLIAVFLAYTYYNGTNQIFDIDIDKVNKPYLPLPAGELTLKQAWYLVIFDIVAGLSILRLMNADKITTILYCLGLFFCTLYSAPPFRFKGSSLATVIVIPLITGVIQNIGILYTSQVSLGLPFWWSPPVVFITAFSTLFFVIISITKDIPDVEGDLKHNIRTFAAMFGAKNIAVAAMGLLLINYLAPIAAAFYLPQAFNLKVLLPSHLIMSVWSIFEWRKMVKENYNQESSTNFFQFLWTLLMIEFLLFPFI

FcPT1a = FcPT1a (Ficus carica, UniProt A0A6S4Q0J8); details: read-out: apparent Km; co-substrate DMAPP; Mg2+; 28 °C
Method: microsomal prenyltransferase assay, HPLC-PDA, nonlinear fit on FcPT1a | The apparent K m values of FcPT1a for umbelliferone and DMAPP were determined

[1] = system: CC(C)=CCOP(=O)(O)OP(=O)(O)O; assay: cells, lysate or membranes; details: co-substrate umbelliferone, Mg2+, 28 °C

Compound | microsomal prenyltransferase assay, HPLC and LC-MS2 product identification (FcPT1b) | Km (FcPT1a) [µM] | Km [1] [µM]
CC(C)=CCOP(=O)(O)OP(=O)(O)O [dimethylallyl diphosphate] | UDT reaction mixtures composed of microsomes containing recombinant FcPT1a/b proteins yielded an enzymatic reaction product | – | –
O=c1ccc2ccc(O)cc2o1 [umbelliferone] | recombinant FcPT1a/b proteins yielded an enzymatic reaction product concomitant with the consumption of umbelliferone | 35 ± 4 | –
FcPT1a (Ficus carica) | – | – | 17 ± 1
